We go through 2 compounds from patent publication US7087214B2, “Water-soluble porphyrin platinum compounds with high tumor selectivity and their use for the treatment of benign and malignant tumor diseases” (Zentaris GmbH, priority 2002, dated 2006).

One assay concerns TCC-SUP cells. The experiment in a line: End-point chemosensitivity assay, hematoporphyrin platinum derivatives, dark and irradiated (600–730 nm). It is filed as cell-based, human. To be noted: 1 μM concentration; hematoporphyrin-platinum series; bladder cancer cells TCC-SUP. The text has this:
(§1) Data of the cytotoxic effect was obtained, for instance, on the human tumor cell lines TCC-SUP and J82. The effect of the compounds was investigated in the dark and under irradiation with light at a wavelength of 600–730 nm. Selected compounds are clearly more activ cytotoxically under irradiation. There is a synergism between the cytotoxic effect of the platinum component and the photodynamic principle.
(§2) To determine the antiproliferative activity of the new porphyrin ligands and the corresponding platinum complexes with different amine non-leaving groups two bladder cancer cell lines TCC-SUP and J82 were selected as in vitro models.
(§3) To discriminate between the cytotoxic and phototoxic effects all experiments were carried out in duplicate. The cells were seeded into microplates and the test compounds were added after 48 h. One batch of the microplates was kept in the dark until the end of the experiment, whereas the other microplates were irradiated 48 h after addition of the substances for 10 min with a light dose of 24 J·cm^−2, before the plates were reincubated in the dark.
(§4) End-Point Chemosensitivity Assay.
Hematoporphyrin Platinum Derivatives Type.

Assay [1] relates to bladder cancer cell lines TCC-SUP and J82. The experiment in a line: End-point chemosensitivity assay, tetraarylporphyrin platinum derivatives, dark and irradiated (600–730 nm). It is filed as cell-based, human. The note with it: 1 μM concentration; tetraarylporphyrin-platinum series.
Excerpt: as §1, §2, §3, §4
Tetraarylporphyrin Platinum Derivatives Type.

As to `N.N.[Cl][Pt][Cl]` [cisplatin], the T/Ccorr. entry with TCC-SUP cells was “approximately 2%”.

As for “(+)-trans-1,2-Diaminocyclohexane[2-(4-{10,15,20-tris[4-(1,4,7,10-tetraoxaundecyl)phenyl]porphyrin-5-yl}phenoxy)malonato]platinum(II) [compound 29]”, the T/Ccorr. in assay [1] is on record as around 57%.
